{"source": "patent US7906620B2", "about": "“Tumor associated antigen, peptides thereof, and use of same as anti-tumor vaccines” (Yeda Research and Development Co. Ltd., priority 2002, dated 2011)", "key": {"[1]": {"system": "T2 cells", "assay": "In vitro priming of human CTL with prostate peptides, cytolytic assay on peptide pulsed T2 cells", "type": "cell-based", "conditions": "three healthy and two CaP individuals", "protocol": "FIGS. 16A-16D are graphs showing in vitro priming of human CTLs. PBMC of leukopheresis samples were isolated and in vitro CTL primed with peptide pulsed autologous DC. PBMC were supplemented with IL-7 and two days later IL-2 was added and renewed every three days. Additional two cycles of re-stimulation were done every 7 days over peptide pulsed monocytes. Seven days after the last stimulation cytolytic assay was performed using peptide pulsed or non-pulsed T2 cells as target. In FIG. 16A, PBMC derived from CaP individual (donor A) were primed and re-stimulated with STEAP-3 pulsed DC/monocytes. Target cells: relevant (STEAP-3) and non-relevant peptide (HIV-derived, PAP-3) pulsed T2 cells. In FIG. 16B, PBMC derived from healthy individual (donor B) were primed and restimulated with PAP-3 pulsed DC/monocytes. Target cells: relevant (PAP-3) and non-relevant peptide (HIV-derived, STEAP-3) pulsed T2 cells. PBMC derived from healthy individual (donor C) were primed and restimulated with either PAP-3 (C-1; FIG. 16C) or STEAP-3 (C-2; FIG. 16D) pulsed DC/monocytes. Relevant (PAP-3 or STEAP-3) peptide pulsed and non-pulsed T2 cells were used as targets.\nFIGS. 17A-17C are graphs showing peptide specific CTL induced in human PBMC by PAP-3 (FIG. 17A), STEAP-3 (FIG. 17B), and PSGR-1 (FIG. 17C). PBMC from a healthy donor were stimulated by peptide pulsed DC as described and CTL activity was tested on homologous peptide pulsed T2 target cells (HLA-A2 lymphoma, TAP deficient).\nFinally, peripheral blood of two healthy (donors B, C) and one CaP (donor A) individuals were tested for the existence of CTL precursors (FIGS. 16A-16D). Leukopheresis products of the donors were obtained from Barzilai Medical Center (Ashkelon, Israel) according to Declaration of Helsinki Principles. PBMC were isolated by centrifugation on Ficoll-Plaque Plus gradients (Amersham, Sweden). In vitro priming of CTL was done over autologous DC that were prepared from monocytes by IL-4 and GM-CSF treatment and maturated with a IL-1β, IL-6, TNF-α and PGE2 cocktail. DC were pulsed with synthetic peptides and PBMC were supplemented with IL-7. Two days later, IL-2 was added and renewed every three days. Two additional re-stimulations were done every 7 days over peptide pulsed monocytes. Seven days after the third stimulation, lymphocytes were harvested and a cytolytic assay was performed using relevant/non-relevant peptide pulsed or non-pulsed at all T2 cells.\n(§1) When human PBMC are stimulated in vitro by PAP-3 and STEAP-3 peptides, the resulting CTL can lyse target cells (T2, EL4/HHD) pulsed with PAP-3, STEAP-3 or PSGR-1 and PSGR-6 peptides. (FIGS. 15 and 16). Here, these findings were expanded and peripheral blood of three healthy and two CaP individuals was tested for the existence of CTL precursors against PAP-3, STEAP-3 and PSGR-1 peptides. Leukopheresis products of the donors were obtained from Barzilai Medical Center (Ashkelon, Israel) according to Declaration of Helsinki Principles. PBMC were isolated by centrifugation on Ficoll-Plaque Plus gradients (Amersham, Sweden). In vitro priming of CTL was done over autologous DC that were prepared from monocytes by IL-4 and GM-CSF treatment and matured with a IL-1β, IL-6, TNF-α and PGE2 cocktail. DC were pulsed with synthetic peptides and PBMC were supplemented with IL-7. Two days later, IL-2 was added and renewed every three days. Two additional re-stimulations were done every 7 days over peptide pulsed monocytes. Seven days after the third stimulation, lymphocytes were harvested and a cytolytic assay was performed using relevant/non-relevant peptide pulsed or non-pulsed T2 cells (FIGS. 17A-17C) and LNCaP (high and low HLA expressors) cells as targets (FIGS. 18A-18E). […] Monitoring of HLA-A2-peptide specific CD8+ cells for PAP-3 and STEAP-3 was also performed by MHC-peptide tetramers (tetramers of recombinant HLA-A2.1-beta2 microglobulin single chain with peptides were prepared in collaboration with Dr Yoram Reiter, Technion, Haifa). […]"}, "[2]": {"system": "LNCaP", "assay": "Lysis of LNCaP tumor cells by human anti-peptide CTL", "type": "cell-based", "conditions": "LNCaP high and low HLA expressors as targets", "description": "FIGS. 18A-18E are graphs showing that human anti-peptide CTL from a healthy donor kills LNCaP tumor cells. PBMC from a healthy donor (FIGS. 18A-18C) or a CaP patient (FIGS. 18D-18E) were stimulated with PAP-3 (FIGS. 18A, 18D), STEAP-3 (FIGS. 18B, 18E) or PSGR-1 (FIG. 18C) as described. LNCaP/CRL1740 (LNCaP high in HLA-A2.1 expression), LNCaP/CRL10995 (LNCaP low in HLA-A2.1 expression) and PC3 (negative for HLA-A2.1) served as targets in CTL assays.\nas §1"}}}
{"sequence": "ILLVMGVDV (listed as Homo sapiens) [PSGR-1, PSGR start position 202]", "values": [{"measurement": "activation of CTL precursors in PBMC derived from CaP patients and healthy donors", "setting": "[1]", "value": "activated CTL precursors"}, {"measurement": "lysis of tumor cells expressing endogenously processed proteins", "setting": "[2]", "value": "lyse tumor cells"}]}
